# Measurements published in patent publication EP1077981B1, “NOVEL CEPHALOSPORIN COMPOUNDS, PROCESSES FOR PREPARATION THEREOF AND ANTIMICROBIAL COMPOSITIONS CONTAINING THE SAME” (LG CHEMICAL LIMITED, priority 1998, dated 1999).
# Assays:
# Test in all cases: MIC against standard strains (agar dilution)
# Assay type in all cases: cell-based
# [1] = tested on: Acinetobacter calcoaceticu 15473; details: Acinetobacter calcoaceticu 15473; Mueller-Hinton agar, 20 hours at 37°C; read-out: MIC
# Description: (§1) Test example 1: Measurement of Minimum Inhibitory Concentration (MIC)
# (§2) Specifically, test compounds were diluted by 2-fold dilution method and dispersed in Mueller-Hinton agar medium and then, 2µℓ of test strains were inoculated at a concentration of 10^7 cfu(colony forming unit)/mℓ on the medium and incubated for 20 hours at 37°C.
# [2] = tested on: Citrobacter diversus 2046E; details: Citrobacter koseri; Citrobacter diversus 2046E; Mueller-Hinton agar, 20 hours at 37°C; read-out: MIC
# Description: as §1, §2
# [3] = tested on: Citrobacter freundii 8090; details: Citrobacter freundii 8090; Mueller-Hinton agar, 20 hours at 37°C; read-out: MIC
# Description: as §1, §2
# [4] = tested on: Enterobacter cloacae IND+VE 1194E; details: Enterobacter cloacae IND+VE 1194E; Mueller-Hinton agar, 20 hours at 37°C; read-out: MIC
# Description: as §1, §2
# Enterobacter cloacae P99 = details: Enterobacter cloacae P99; Mueller-Hinton agar, 20 hours at 37°C; read-out: MIC
# Description: as §1, §2
# [5] = tested on: Enterococcus faecalis 29212; details: Enterococcus faecalis 29212; Mueller-Hinton agar, 20 hours at 37°C; read-out: MIC
# Description: as §1, §2
# Escherichia coli 10536 = details: Escherichia coli 10536; Mueller-Hinton agar, 20 hours at 37°C; read-out: MIC
# Description: as §1, §2
# Escherichia coli 3190Y = details: Escherichia coli, 3190Y, 20 h
# Description: as §1, §2
# Escherichia coli 851E = details: Escherichia coli, 851E, 20 h
# Description: as §1, §2
# [6] = tested on: Escherichia coli TEM1 1193E; details: TEM11193E, 20 h
# Description: as §1, §2
# [7] = tested on: Escherichia coli TEM3 3455E; details: TEM33455E, 20 h
# Description: as §1, §2
# [8] = tested on: Escherichia coli TEM9 2639E; details: TEM92639E; Escherichia coli TEM9 2639E; Mueller-Hinton agar, 20 hours at 37°C; read-out: MIC
# Description: as §1, §2
# [9] = tested on: Klebsiella aerogenes K1+ 1082E; details: Klebsiella aerogenes K1+ 1082E; Mueller-Hinton agar, 20 hours at 37°C; read-out: MIC
# Description: as §1, §2
# [10] = tested on: Klebsiella aerogenes SHV-1 1976E; details: Klebsiella aerogenes, 20 h
# Description: as §1, §2
# [11] = tested on: Klebsiella pneumoniae 2011E; details: Klebsiella pneumoniae 2011E; Mueller-Hinton agar, 20 hours at 37°C; read-out: MIC
# Description: as §1, §2
# [12] = tested on: Moraxella catarrhalis 25240; details: Moraxella catarrhalis 25240; Mueller-Hinton agar, 20 hours at 37°C; read-out: MIC
# Description: as §1, §2
# [13] = tested on: Moraxella catarrhalis C2431; details: Moraxella catarrhalis C2431; Mueller-Hinton agar, 20 hours at 37°C; read-out: MIC
# Description: as §1, §2
# [14] = tested on: Morganella morganii 1375E; details: Morganella morganii 1375E; Mueller-Hinton agar, 20 hours at 37°C; read-out: MIC
# Description: as §1, §2
# Proteus vulgaris 6059 = details: Proteus vulgaris 6059; Mueller-Hinton agar, 20 hours at 37°C; read-out: MIC
# Description: as §1, §2
# [15] = tested on: Pseudomonas aeruginosa 1912E; details: Pseudomonas aeruginosa 1912E; Mueller-Hinton agar, 20 hours at 37°C; read-out: MIC
# Description: as §1, §2
# [16] = tested on: Pseudomonas aeruginosa 6065Y; details: Pseudomonas aeruginosa 6065Y; Mueller-Hinton agar, 20 hours at 37°C; read-out: MIC
# Description: as §1, §2
# [17] = tested on: Salmonella typhimurium 14028; details: Salmonella enterica; Salmonella typhimurium 14028; Mueller-Hinton agar, 20 hours at 37°C; read-out: MIC
# Description: as §1, §2
# [18] = tested on: Serratia marcescens 1826E; details: Serratia marcescens 1826E; Mueller-Hinton agar, 20 hours at 37°C; read-out: MIC
# Description: as §1, §2
# [19] = tested on: Staphylococcus aureus 241; details: Staphylococcus aureus 241; Mueller-Hinton agar, 20 hours at 37°C; read-out: MIC
# Description: as §1, §2
# [20] = tested on: Staphylococcus aureus 6538p; details: Staphylococcus aureus 6538p; Mueller-Hinton agar, 20 hours at 37°C; read-out: MIC
# Description: as §1, §2
# Staphylococcus aureus 77 = details: Staphylococcus aureus 77; Mueller-Hinton agar, 20 hours at 37°C; read-out: MIC
# Description: as §1, §2
# [21] = tested on: Staphylococcus aureus giorgio; details: Staphylococcus aureus giorgio; Mueller-Hinton agar, 20 hours at 37°C; read-out: MIC
# Description: as §1, §2
# [22] = tested on: Staphylococcus epidermidi 887E; details: Staphylococcus epidermidi 887E; Mueller-Hinton agar, 20 hours at 37°C; read-out: MIC
# Description: as §1, §2
compound,measurement,setting,value
"Nc1cc(SC2=C(C(=O)O)N3C(=O)C(NC(=O)/C(=N\O)c4csc(N)n4)C3SC2)nc(N)n1 (centres unmarked) [compound 26, 7-[(Z)-2-(2-amino-thiazol-4-yl)-2-hydroxyimino-acetylamino]-3-(2,6-diamino-pyrimidin-4-ylsulfanyl)-8-oxo-5-thia-1-azabicyclo[4,2,0]oct-2-ene-2-carboxylic acid]",MIC,[1],32 µg/mL
same,MIC,[2],> 64 µg/mL
same,MIC,[3],8 µg/mL
same,MIC,[4],> 64 µg/mL
same,MIC,Enterobacter cloacae P99,> 64 µg/mL
same,MIC,[5],16 µg/mL
same,MIC,Escherichia coli 10536,0.063 µg/mL
same,MIC,Escherichia coli 3190Y,0.031 µg/mL
same,MIC,Escherichia coli 851E,0.063 µg/mL
same,MIC,[6],0.5 µg/mL
same,MIC,[7],64 µg/mL
same,MIC,[8],32 µg/mL
same,MIC,[9],> 64 µg/mL
same,MIC,[10],0.5 µg/mL
same,MIC,[11],1 µg/mL
same,MIC,[12],≤ 0.008 µg/mL
same,MIC,[13],0.016 µg/mL
same,MIC,[14],0.25 µg/mL
same,MIC,Proteus vulgaris 6059,0.031 µg/mL
same,MIC,[15],> 64 µg/mL
same,MIC,[16],> 64 µg/mL
same,MIC,[17],0.13 µg/mL
same,MIC,[18],64 µg/mL
same,MIC,[19],8 µg/mL
same,MIC,[20],0.5 µg/mL
same,MIC,Staphylococcus aureus 77,2 µg/mL
same,MIC,[21],0.25 µg/mL
same,MIC,[22],2 µg/mL
"CCO/N=C(\C(=O)NC1C(=O)N2C(C(=O)O)=C(Sc3cc(N)nc(N)n3)CSC12)c1csc(N)n1 (centres unmarked) [compound 27, 7-[(Z)-2-(2-amino-thiazol-4-yl)-2-ethoxyiminoacetylamino]-3-(2,6-diamino-pyrimidin-4-ylsulfanyl)-8-oxo-5-thia-1-aza-bi cyclo[4,2,0]oct-2-ene-2-carboxylic acid]",MIC,[1],32 µg/mL
same,MIC,[2],64 µg/mL
same,MIC,[3],2 µg/mL
same,MIC,[4],> 64 µg/mL
same,MIC,Enterobacter cloacae P99,> 64 µg/mL
same,MIC,[5],64 µg/mL
same,MIC,Escherichia coli 10536,0.25 µg/mL
same,MIC,Escherichia coli 3190Y,0.13 µg/mL
same,MIC,Escherichia coli 851E,0.25 µg/mL
same,MIC,[6],0.5 µg/mL
same,MIC,[7],16 µg/mL
same,MIC,[8],64 µg/mL
same,MIC,[9],> 64 µg/mL
same,MIC,[10],0.5 µg/mL
same,MIC,[11],2 µg/mL
same,MIC,[12],≤ 0.008 µg/mL
same,MIC,[13],≤ 0.008 µg/mL
same,MIC,[14],0.25 µg/mL
same,MIC,Proteus vulgaris 6059,0.063 µg/mL
same,MIC,[15],8 µg/mL
same,MIC,[16],64 µg/mL
same,MIC,[17],1 µg/mL
same,MIC,[18],4 µg/mL
same,MIC,[19],8 µg/mL
same,MIC,[20],2 µg/mL
same,MIC,Staphylococcus aureus 77,4 µg/mL
same,MIC,[21],0.5 µg/mL
same,MIC,[22],8 µg/mL
